# pIC50: −log10 of the molar value. Active and inactive are the calls of the source. No cut-off for these calls is given here.
# How the values were obtained:
# [1] = molecular target: Voltage-gated inwardly rectifying potassium channel KCNH2 (Homo sapiens, UniProt Q12809); experiment: Inhibition of hERG expressed in HEK293 cells assessed as inhibition of tail current measured at holding potential of -80 mV by automated patch clamp analysis; assay type: toxicity, cell-based
# Cell membrane [2] = experiment: Disruption of cell membrane in methicillin-resistant Staphylococcus aureus ATCC33591 assessed as induction of cell death by measuring increase in propidium iodide fluorescence intensity at 0.5 ug/ml incubated for 2 hrs by bright field microscopy; assay type: subcellular; conditions: dose 0.5 µg/ml
# [3] = Cmax in Sprague-Dawley rat at 10 mg/kg, po; assay type: ADME, organism-based; conditions: in vivo
# [4] = Observed clearance in Sprague-Dawley rat at 5 mg/kg, iv; assay type: ADME, organism-based; conditions: in vivo
# Escherichia coli [5] = experiment: Antibiofilm activity against Escherichia coli ATCC25922 assessed as eradication of preformed biofilms incubated for 24 hrs with preformed biofilms by crystal violet staining based analysis; assay type: functional, organism-based; conditions: dose 0.125-0.5 µg/ml
# [6] = Cytotoxicity against human HEK293 cells assessed as reduction in cell viability incubated for 24 hrs by CCK8 assay; assay type: toxicity, cell-based
# Chlamydia pneumoniae [7] = experiment: Anti-mycoplasma activity against Chlamydophila pneumoniae CWL-029 VR1310 assessed as inhibition of bacterial growth incubated for 3 to 5 days by broth microdilution method; assay type: functional; conditions: time 3-5 day
# Chlamydia pneumoniae [8] = experiment: Anti-mycoplasma activity against Chlamydophila pneumoniae TW183 VR-2282 assessed as inhibition of bacterial growth incubated for 3 to 5 days by broth microdilution method; assay type: functional; conditions: time 3-5 day
# Escherichia coli [9] = experiment: Antibacterial activity against Escherichia coli ATCC25922 infected in pyelonephritis C57BL/6 mouse model assessed as decrease in IL-1 beta level in kidney at 3 to 10 mg/kg, iv qd for 3 days administered at 2 days post-infection by ELISA; assay type: functional, organism-based; conditions: dose 3-10 mg/kg, time 3.0 day
# Staphylococcus aureus [10] = experiment: Antibacterial activity against methicillin-resistant Staphylococcus aureus ATCC 43300 assessed as inhibition of bacterial growth incubated for 24 hrs by broth microdilution method; assay type: functional
# [11] = system: Mycoplasmoides gallisepticum; experiment: Anti-mycoplasma activity against Mycoplasma gallisepticum NCTC10115 assessed as inhibition of bacterial growth incubated for 3 to 5 days by broth microdilution method; assay type: functional; conditions: time 3-5 day
# Escherichia coli [12] = experiment: Antibacterial activity against Escherichia coli ATCC25922 infected in pyelonephritis C57BL/6 mouse model assessed as decrease in MPO activity in kidney at 3 to 10 mg/kg, iv qd for 3 days administered at 2 days post-infection; assay type: functional, organism-based; conditions: dose 3-10 mg/kg, time 3.0 day
# Staphylococcus aureus [13] = experiment: Antibacterial activity against methicillin-resistant Staphylococcus aureus ATCC33591 infected in systemic intraperitoneal infection Kunming mouse model assessed as decrease in bacterial colonies in kidneys administered intraperitoneally at 1 hr post-infection and measured after 7 days; assay type: functional, organism-based; conditions: dose 5-20 mg/kg, route ip, time 7.0 day
# [14] = AUC (0 to 24 hrs) in Sprague-Dawley rat at 10 mg/kg, po; assay type: ADME, organism-based; conditions: in vivo
# Staphylococcus aureus [15] = experiment: Antibacterial activity against methicillin-resistant Staphylococcus aureus ATCC 33591 assessed as inhibition of bacterial growth incubated for 24 hrs by broth microdilution method; assay type: functional
# Escherichia coli [16] = experiment: Antibacterial activity against Escherichia coli ATCC25922 infected in pyelonephritis C57BL/6 mouse model assessed as decrease in IL-6 level in kidney at 3 to 10 mg/kg, iv qd for 3 days administered at 2 days post-infection by ELISA; assay type: functional, organism-based; conditions: dose 3-10 mg/kg, time 3.0 day
# Cell membrane [17] = experiment: Disruption of cell membrane in Escherichia coli ATCC25922 assessed as dissipation of membrane potential at 0.125 to 0.5 ug/ml incubated for 30 mins by DiBAC4(3) probe based fluorescence spectrophotometry; conditions: dose 0.125-0.5 µg/ml
# [18] = Toxicity against methicillin-resistant Staphylococcus aureus ATCC33591 infected in systemic intraperitoneal infection Kunming mouse model assessed as mild liver damage at 20 mg/kg, ip treated at 1 hr post-infection and measured after 7 days by Hematoxylin-Eosin staining based analysis; assay type: organism-based; conditions: in vivo, 168 h, time 7 day
# Staphylococcus aureus [19] = experiment: Antibacterial activity against methicillin-resistant Staphylococcus aureus ATCC33591 infected in systemic intraperitoneal infection Kunming mouse model assessed as decrease in inflammation, neutrophil infiltration, alveolar structure destruction, leukocyte infiltration, interstitial thickening in lungs at 5 mg/kg, ip treated at 1 hr post-infection and measured after 7 days by Hematoxylin-Eosin staining based analysis; assay type: functional, organism-based; conditions: time 7.0 day
# Escherichia coli [20] = experiment: Antibacterial activity against Escherichia coli ATCC25922 infected in pyelonephritis C57BL/6 mouse model assessed as restoration of normal renal cortex and pelvis structures at >=5 mg/kg, iv qd for 3 days administered at 2 days post-infection by Hematoxylin-Eosin staining based analysis; assay type: functional, organism-based; conditions: time 3.0 day
# Cell membrane [21] = experiment: Disruption of cell membrane in methicillin-resistant Staphylococcus aureus ATCC33591 assessed as increase in extracellular ATP content at 0.125 to 0.25 ug/ml incubated for 30 mins by luminescence based analysis; conditions: dose 0.125-0.25 µg/ml
# Cell membrane [22] = experiment: Disruption of cell membrane in methicillin-resistant Staphylococcus aureus ATCC33591 assessed as leakage of bacterial cell contents by measuring increase in conductivity of bacterial solution at MIC measured for 6 hrs by conductivity meter analysis
# Staphylococcus aureus [23] = experiment: Antibacterial activity against methicillin-resistant Staphylococcus aureus 596 assessed as inhibition of bacterial growth incubated for 24 hrs by broth microdilution method; assay type: functional
# Staphylococcus aureus [24] = experiment: Antibiofilm activity against methicillin-resistant Staphylococcus aureus ATCC33591 assessed as eradication of preformed biofilms incubated for 24 hrs with preformed biofilms by crystal violet staining based analysis; assay type: functional, organism-based; conditions: dose 0.125-0.5 µg/ml
# [25] = Observed MRT (0 to infinity) in Sprague-Dawley rat at 10 mg/kg, po; assay type: ADME, organism-based; conditions: in vivo
# Staphylococcus aureus [26] = experiment: Antibacterial activity against methicillin-resistant Staphylococcus aureus ATCC33591 infected in systemic intraperitoneal infection Kunming mouse model assessed as decrease in inflammation and neutrophil infiltration in kidney at 5 mg/kg, ip treated at 1 hr post-infection and measured after 7 days by Hematoxylin-Eosin staining based analysis; assay type: functional, organism-based; conditions: time 7.0 day
# [27] = Observed apparent volume of distribution during terminal phase in Sprague-Dawley rat at 10 mg/kg, po; assay type: ADME, organism-based; conditions: in vivo, read-out: Vz/F_obs
# Salmonella enterica = experiment: Antibacterial activity against Salmonella enterica ATCC 14028 assessed as inhibition of bacterial growth incubated for 24 hrs by broth microdilution method; assay type: functional
# Cell membrane [28] = experiment: Disruption of cell membrane in Escherichia coli ATCC25922 assessed as increase in extracellular ATP content at 0.125 to 0.25 ug/ml incubated for 30 mins by luminescence based analysis; conditions: dose 0.125-0.25 µg/ml
# Pseudomonas aeruginosa = experiment: Antibacterial activity against multidrug-resistant Pseudomonas aeruginosa 126 assessed as inhibition of bacterial growth incubated for 24 hrs by broth microdilution method; assay type: functional
# [29] = system: Mesomycoplasma hyopneumoniae; experiment: Anti-mycoplasma activity against Mycoplasma hyopneumoniae MH-LH assessed as inhibition of bacterial growth incubated for 6 to 7 days by broth microdilution method; assay type: functional; conditions: time 6-7 day
# [30] = Half-life in Sprague-Dawley rat at 5 mg/kg, iv; assay type: ADME, organism-based; conditions: in vivo
# [31] = Drug uptake in Sprague-Dawley rat kidney at 5 mg/kg, iv measured for 6 hrs by LC-MS/MS analysis; assay type: ADME, organism-based; conditions: in vivo
# [32] = Observed AUC (0 to infinity) in Sprague-Dawley rat at 5 mg/kg, iv; assay type: ADME, organism-based; conditions: in vivo
# Voltage-gated inwardly rectifying potassium channel KCNH2, sequence (Q12809 whole entry): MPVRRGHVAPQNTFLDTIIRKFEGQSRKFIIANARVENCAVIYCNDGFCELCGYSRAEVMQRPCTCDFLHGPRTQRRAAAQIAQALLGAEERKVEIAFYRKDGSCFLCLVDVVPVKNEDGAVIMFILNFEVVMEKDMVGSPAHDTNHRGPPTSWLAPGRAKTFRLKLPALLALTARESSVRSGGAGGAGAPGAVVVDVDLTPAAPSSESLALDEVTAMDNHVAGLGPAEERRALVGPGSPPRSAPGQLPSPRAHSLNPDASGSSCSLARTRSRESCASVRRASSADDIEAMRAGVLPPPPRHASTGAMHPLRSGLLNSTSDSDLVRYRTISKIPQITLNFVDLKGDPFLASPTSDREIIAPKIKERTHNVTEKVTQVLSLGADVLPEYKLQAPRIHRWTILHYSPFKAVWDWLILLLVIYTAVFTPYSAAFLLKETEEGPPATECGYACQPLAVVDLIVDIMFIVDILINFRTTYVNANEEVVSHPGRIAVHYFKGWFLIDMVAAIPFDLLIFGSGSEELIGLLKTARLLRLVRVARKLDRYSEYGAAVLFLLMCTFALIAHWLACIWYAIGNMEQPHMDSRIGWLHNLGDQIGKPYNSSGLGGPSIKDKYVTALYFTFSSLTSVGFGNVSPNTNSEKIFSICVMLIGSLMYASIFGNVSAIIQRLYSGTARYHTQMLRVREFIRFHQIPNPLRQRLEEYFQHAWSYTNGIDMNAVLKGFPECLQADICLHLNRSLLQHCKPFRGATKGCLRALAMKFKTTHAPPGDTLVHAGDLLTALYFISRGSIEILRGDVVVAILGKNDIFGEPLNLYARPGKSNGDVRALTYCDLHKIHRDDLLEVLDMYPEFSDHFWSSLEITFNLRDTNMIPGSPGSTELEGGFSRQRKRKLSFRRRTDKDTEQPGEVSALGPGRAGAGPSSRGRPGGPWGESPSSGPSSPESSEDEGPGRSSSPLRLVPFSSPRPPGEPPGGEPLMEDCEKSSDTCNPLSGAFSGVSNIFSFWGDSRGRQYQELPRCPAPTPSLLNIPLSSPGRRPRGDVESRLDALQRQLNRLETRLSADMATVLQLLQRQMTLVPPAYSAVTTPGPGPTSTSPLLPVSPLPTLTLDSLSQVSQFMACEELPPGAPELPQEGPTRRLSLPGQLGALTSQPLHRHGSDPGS
smiles,measurement,setting,value
C=C[C@]1(C)C[C@@H](OC(=O)CSc2nc3cc[n+](Cc4ccc(C)cc4)cc3[nH]2)[C@]2(C)[C@H](C)CC[C@]3(CCC(=O)[C@H]32)[C@@H](C)[C@@H]1O.[Br-],pIC50,[1],4.15
same,Activity,Cell membrane [2],Active
same,Cmax,[3],6210 ng/mL
same,clearance,[4],5.04 mL/min/kg
same,Activity,Escherichia coli [5],Dose-dependent-effect
same,CC50 at 24 h,[6],96.4 µM
same,MIC,Chlamydia pneumoniae [7],< 0.04 µg/mL
same,MIC,Chlamydia pneumoniae [8],< 0.04 µg/mL
same,Activity,Escherichia coli [9],Dose-dependent-effect
same,MIC,Staphylococcus aureus [10],< 1 µg/mL
same,MIC,[11],< 0.04 µg/mL
same,Activity,Escherichia coli [12],Active
same,Activity,Staphylococcus aureus [13],Active; Superior Efficacy Compared To Valnemulin Observed
same,AUC(0-t),[14],14600 ng·h/mL
same,MIC,Staphylococcus aureus [15],< 1 µg/mL
same,Activity,Escherichia coli [16],Dose-dependent-effect
same,Activity,Cell membrane [17],Active
same,Activity,[18],Toxic
same,Activity,Staphylococcus aureus [19],Active; Nearly Restoration Of Normal Histology Observed
same,Activity,Escherichia coli [20],Active
same,Activity,Cell membrane [21],Active
same,Activity,Cell membrane [22],Active
same,MIC,Staphylococcus aureus [23],2 µg/mL
same,Activity,Staphylococcus aureus [24],Dose-dependent-effect
same,MRT inf,[25],2.46 h
same,Activity,Staphylococcus aureus [26],Active; Nearly Restoration Of Normal Histology Observed
same,Vd/F,[27],1.43 L/kg
same,MIC,Salmonella enterica,< 1 µg/mL
same,Activity,Cell membrane [28],Active
same,MIC,Pseudomonas aeruginosa,4 µg/mL
same,MIC,[29],< 0.04 µg/mL
same,half-life,[30],70.2 min
same,Drug uptake,[31],Active
same,AUC(0-inf),[32],16500 ng·h/mL

# Reference: ChEMBL document CHEMBL6096719, “Kidney Targeting Smart Antibiotic Discovery: Multimechanism Pleuromutilins for Pyelonephritis Therapy” (J Med Chem, 2025)
